Experimental data published in PubChem BioAssay AID1963424 (Molecular Pharmacology Branch, DTP, NCI, 2024).
Several values for one entry are separate records, joined by “and”; a condition that tells them apart may be missing. Equal entries are not always repeated. Blank lines part the entries; values can stand above or below the compound they belong to.

System: 327498-153-R-J2-PDC complex spheroid growth, % test/control
Test: Anticancer human tumor 327498-153-R-J2-PDC patient-derived uterine carcinosarcoma cell line growth inhibition [Asc]
Settings: for viability, T/C: stronger effect = lower value
In short: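 Tumor cells were grown as multicellular spheroids with stromal HUVEC and mesenchymal stem cells and treated singly or in combination. Concentrations fell in half-log steps from the clinical Cmax, or from 10 microM where none was known.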

[1] = curve of first compound, second compound 0.1 µM
[2] = curve of first compound, second compound 0.316 µM
[3] = curve of first compound, second compound 1 µM
[4] = curve of first compound, second compound 3.16 µM
[5] = curve of first compound, second compound 10 µM
[6] = second compound 0.1 µM, first compound 0.0316 µM
[7] = second compound 0.1 µM, first compound 0.1 µM
[8] = second compound 0.1 µM, first compound 0.316 µM
[9] = second compound 0.1 µM, first compound 1 µM
[10] = second compound 0.316 µM, first compound 0.0316 µM
[11] = second compound 0.316 µM, first compound 0.1 µM
[12] = second compound 0.316 µM, first compound 0.316 µM
[13] = second compound 0.316 µM, first compound 1 µM
[14] = second compound 1 µM, first compound 0.0316 µM
[15] = second compound 1 µM, first compound 0.1 µM
[16] = second compound 1 µM, first compound 0.316 µM
[17] = second compound 1 µM, first compound 1 µM
[18] = second compound 3.16 µM, first compound 0.0316 µM
[19] = second compound 3.16 µM, first compound 0.1 µM
[20] = second compound 3.16 µM, first compound 0.316 µM
[21] = second compound 3.16 µM, first compound 1 µM
[22] = second compound 10 µM, first compound 0.0316 µM
[23] = second compound 10 µM, first compound 0.1 µM
[24] = second compound 10 µM, first compound 0.316 µM
[25] = second compound 10 µM, first compound 1 µM
[26] = second compound 0.1 µM, first compound 0.00316 µM
[27] = second compound 0.1 µM, first compound 0.01 µM
[28] = second compound 0.316 µM, first compound 0.00316 µM
[29] = second compound 0.316 µM, first compound 0.01 µM
[30] = second compound 1 µM, first compound 0.00316 µM
[31] = second compound 1 µM, first compound 0.01 µM
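Further: spheroids exposed to compound for 7 days after 3 days of growth.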
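Wherever viability, T/C is given: 100% = DMSO vehicle control wells.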

Compound: NC(=O)C(=Cn1cnc(-c2cc(C(F)(F)F)cc(C(F)(F)F)c2)n1)c1cncnc1 + Cc1c(S(C)(=O)=O)c(-c2cc(F)cc(N3CCN(c4ccc(NS(=O)(=O)c5ccc(NC(CCN6CCC(C(=O)OCCCP(=O)(O)O)CC6)CSc6ccccc6)c(S(=O)(=O)C(F)(F)F)c5)cc4)CC3)c2)c(-c2ccc(Cl)cc2)n1C(C)C
IC50 [1]: 36.4 nM
IC50 [2]: 39.4 nM
IC50 [3]: 31.2 nM
IC50 [4]: 30.5 nM
IC50 [5]: 46.6 nM
viability, T/C (second compound 0.1 µM, first compound 0.000949 µM): 88.6%
viability, T/C (second compound 0.1 µM, first compound 0.003 µM): 91.2%
viability, T/C (second compound 0.1 µM, first compound 0.00949 µM): 84.6%
viability, T/C (second compound 0.1 µM, first compound 0.03 µM): 58.4%
viability, T/C (second compound 0.1 µM, first compound 0.0949 µM): 9.68%
viability, T/C (second compound 0.1 µM, first compound 0.3 µM): 0.77%
viability, T/C (second compound 0.316 µM, first compound 0.000949 µM): 98.2%
viability, T/C (second compound 0.316 µM, first compound 0.003 µM): 93.3%
viability, T/C (second compound 0.316 µM, first compound 0.00949 µM): 86.8%
viability, T/C (second compound 0.316 µM, first compound 0.03 µM): 64.3%
viability, T/C (second compound 0.316 µM, first compound 0.0949 µM): 4.86%
viability, T/C (second compound 0.316 µM, first compound 0.3 µM): 0.51%
viability, T/C (second compound 1 µM, first compound 0.000949 µM): 99.7%
viability, T/C (second compound 1 µM, first compound 0.003 µM): 94.6%
viability, T/C (second compound 1 µM, first compound 0.00949 µM): 87.1%
viability, T/C (second compound 1 µM, first compound 0.03 µM): 53.1%
viability, T/C (second compound 1 µM, first compound 0.0949 µM): 3.7%
viability, T/C (second compound 1 µM, first compound 0.3 µM): 1.44%
viability, T/C (second compound 3.16 µM, first compound 0.000949 µM): 95.8%
viability, T/C (second compound 3.16 µM, first compound 0.003 µM): 90.7%
viability, T/C (second compound 3.16 µM, first compound 0.00949 µM): 93.4%
viability, T/C (second compound 3.16 µM, first compound 0.03 µM): 50.5%
viability, T/C (second compound 3.16 µM, first compound 0.0949 µM): 4.58%
viability, T/C (second compound 3.16 µM, first compound 0.3 µM): 0.43%
viability, T/C (second compound 10 µM, first compound 0.000949 µM): 168%
viability, T/C (second compound 10 µM, first compound 0.003 µM): 168%
viability, T/C (second compound 10 µM, first compound 0.00949 µM): 168%
viability, T/C (second compound 10 µM, first compound 0.03 µM): 78.8%
viability, T/C (second compound 10 µM, first compound 0.0949 µM): 4.73%
viability, T/C (second compound 10 µM, first compound 0.3 µM): 0.54%

Compound: O=C(c1ccc(F)c(F)c1Nc1ccc(I)cc1F)N1CC(O)([C@@H]2CCCCN2)C1 + Cc1c(S(C)(=O)=O)c(-c2cc(F)cc(N3CCN(c4ccc(NS(=O)(=O)c5ccc(NC(CCN6CCC(C(=O)OCCCP(=O)(O)O)CC6)CSc6ccccc6)c(S(=O)(=O)C(F)(F)F)c5)cc4)CC3)c2)c(-c2ccc(Cl)cc2)n1C(C)C
IC50 [1]: 277 nM
IC50 [2]: 215 nM
IC50 [3]: 196 nM
IC50 [4]: 146 nM
IC50 [5]: 458 nM
viability, T/C [26]: 92.1%
viability, T/C [27]: 96.2%
viability, T/C [6]: 81.7%
viability, T/C [7]: 67.3%
viability, T/C [8]: 49%
viability, T/C [9]: 18.4%
viability, T/C [28]: 91.5%
viability, T/C [29]: 80.4%
viability, T/C [10]: 76.9%
viability, T/C [11]: 62.9%
viability, T/C [12]: 44.1%
viability, T/C [13]: 14.6%
viability, T/C [30]: 98.6%
viability, T/C [31]: 80.6%
viability, T/C [14]: 74.5%
viability, T/C [15]: 58.7%
viability, T/C [16]: 49%
viability, T/C [17]: 12.9%
viability, T/C (second compound 3.16 µM, first compound 0.00316 µM): 91.5%
viability, T/C (second compound 3.16 µM, first compound 0.01 µM): 84.9%
viability, T/C [18]: 75.1%
viability, T/C [19]: 56.4%
viability, T/C [20]: 35.9%
viability, T/C [21]: 15.4%
viability, T/C (second compound 10 µM, first compound 0.00316 µM): 170%
viability, T/C (second compound 10 µM, first compound 0.01 µM): 167%
viability, T/C [22]: 131%
viability, T/C [23]: 97.9%
viability, T/C [24]: 70.8%
viability, T/C [25]: 17.1%

Compound: CCN1CCN(Cc2ccc(Nc3ncc(F)c(-c4cc(F)c5nc(C)n(C(C)C)c5c4)n3)nc2)CC1 + CNC(C)C(=O)NC1CN(S(=O)(=O)c2cccc(S(=O)(=O)N3CCC4CCC(C(=O)NC(c5ccccc5)c5ccccc5)N4C(=O)C(NC(=O)C(C)NC)C3)c2)CCC2CCC(C(=O)NC(c3ccccc3)c3ccccc3)N2C1=O
IC50 (curve of first compound, second compound 0.01 µM): > 1000 nM
IC50 (curve of first compound, second compound 0.0316 µM): > 1000 nM
IC50 [1]: > 1000 nM
IC50 [2]: > 1000 nM
IC50 [3]: > 1000 nM
viability, T/C (second compound 0.01 µM, first compound 0.00316 µM): 102%
viability, T/C (second compound 0.01 µM, first compound 0.01 µM): 110%
viability, T/C (second compound 0.01 µM, first compound 0.0316 µM): 97.7%
viability, T/C (second compound 0.01 µM, first compound 0.1 µM): 88.9%
viability, T/C (second compound 0.01 µM, first compound 0.316 µM): 68.7%
viability, T/C (second compound 0.01 µM, first compound 1 µM): 73.8%
viability, T/C (second compound 0.0316 µM, first compound 0.00316 µM): 106%
viability, T/C (second compound 0.0316 µM, first compound 0.01 µM): 104%
viability, T/C (second compound 0.0316 µM, first compound 0.0316 µM): 90.5%
viability, T/C (second compound 0.0316 µM, first compound 0.1 µM): 82.4%
viability, T/C (second compound 0.0316 µM, first compound 0.316 µM): 61.2%
viability, T/C (second compound 0.0316 µM, first compound 1 µM): 65%
viability, T/C [26]: 99.4%
viability, T/C [27]: 104%
viability, T/C [6]: 94%
viability, T/C [7]: 76.7%
viability, T/C [8]: 68%
viability, T/C [9]: 68.2%
viability, T/C [28]: 110%
viability, T/C [29]: 100%
viability, T/C [10]: 95.5%
viability, T/C [11]: 75.9%
viability, T/C [12]: 65.8%
viability, T/C [13]: 64.4%
viability, T/C [30]: 106%
viability, T/C [31]: 115%
viability, T/C [14]: 91.6%
viability, T/C [15]: 82.1%
viability, T/C [16]: 73%
viability, T/C [17]: 54.7%

Now from value to compound, other results behind:

IC50 (curve of compound): > 3000 nM and 1400 nM
Compound: Cc1nc(N2CCC3(CC2)COC(C)C3N)c(CO)nc1Sc1ccnc(N)c1Cl (configuration not stated)
viability, T/C (compound 0.00949 µM): 98.2% and 101% and 93%
viability, T/C (compound 0.03 µM): 94% and 88.4% and 87.5%
viability, T/C (compound 0.0949 µM): 86.9% and 73.2% and 77%
viability, T/C (compound 0.3 µM): 76.2% and 64.7% and 71.6%
viability, T/C (compound 0.949 µM): 65.4% and 58.5% and 56.2%
viability, T/C (compound 3 µM): 49.8% and 40.1% and 52.5%

IC50 [1]: 756 nM
IC50 [2]: 633 nM
IC50 [3]: 546 nM
IC50 [4]: 512 nM
IC50 [5]: 1590 nM
Compound: C=C(F)C(=O)N1CCN(c2nc(OCC3CCCN3C)nc3c2CCN(c2cccc4cccc(Cl)c24)C3)CC1CC#N (configuration not stated) + Cc1c(S(C)(=O)=O)c(-c2cc(F)cc(N3CCN(c4ccc(NS(=O)(=O)c5ccc(NC(CCN6CCC(C(=O)OCCCP(=O)(O)O)CC6)CSc6ccccc6)c(S(=O)(=O)C(F)(F)F)c5)cc4)CC3)c2)c(-c2ccc(Cl)cc2)n1C(C)C
viability, T/C [6]: 63%
viability, T/C [7]: 57.9%
viability, T/C [8]: 62.2%
viability, T/C [9]: 46.4%
viability, T/C (second compound 0.1 µM, first compound 3.16 µM): 5.7%
viability, T/C (second compound 0.1 µM, first compound 10 µM): 0.14%
viability, T/C [10]: 66.6%
viability, T/C [11]: 63.4%
viability, T/C [12]: 56%
viability, T/C [13]: 43.6%
viability, T/C (second compound 0.316 µM, first compound 3.16 µM): 3.41%
viability, T/C (second compound 0.316 µM, first compound 10 µM): 0.12%
viability, T/C [14]: 63.9%
viability, T/C [15]: 58.5%
viability, T/C [16]: 55.9%
viability, T/C [17]: 40.8%
viability, T/C (second compound 1 µM, first compound 3.16 µM): 3.33%
viability, T/C (second compound 1 µM, first compound 10 µM): 0.11%
viability, T/C [18]: 68.1%
viability, T/C [19]: 60.1%
viability, T/C [20]: 50.7%
viability, T/C [21]: 41.3%
viability, T/C (second compound 3.16 µM, first compound 3.16 µM): 2.02%
viability, T/C (second compound 3.16 µM, first compound 10 µM): 0.12%
viability, T/C [22]: 164%
viability, T/C [23]: 150%
viability, T/C [24]: 130%
viability, T/C [25]: 82%
viability, T/C (second compound 10 µM, first compound 3.16 µM): 3.02%
viability, T/C (second compound 10 µM, first compound 10 µM): 0.19%
